# “Also recorded” adds a separate entry of the source. Read-outs that look alike come from different tables or passages of the source.
# What was measured:
# B9 cells = test: Anchorage-independent growth assay of B9 cells in soft agar; type: cell-based, mouse; settings: 3 weeks; for effect on vemurafenib-induced B9 colony formation: combination with vemurafenib, soft agar
# Procedure: Anchorage-independent growth assay. 2.5×10^4 B9 cells were plated in each well of a six-well plate with a bottom layer of 1% and a top layer of 0.4% low melting agar (Sigma A4018, Dallas, Tex.) containing RPMI1640 medium with 10% FBS. For RAF inhibitor study, B9 cells grown in soft agar were treated with vemurafenib, compound P-1000 or compound A at indicated concentration or dimethyl sulfoxide (DMSO) for 3 weeks. For EGFR ligand study, B9 cells grown in soft agar were treated with AREG (R&D systems 989-AR, Minneapolis, Minn.), TGFα (R&D systems 239-A, Minneapolis, Minn.) or HB-EGF (R&D systems 259-HE, Minneapolis, Minn.) at the indicated concentrations for 3 weeks. For vemurafenib and erlotinib combination study, B9 cells grown in soft agar were treated with vemurafenib, erlotinib or a combination of the two compounds at the indicated concentrations or DMSO for 3 weeks. Anchorage-independent colonies ≥100 μm were scored using AxioVision Rel 4.8 software (CarlZeiss, Wake Forest, N.C.).
# B9 cells grown in soft agar were treated with AREG, TGFα or HBEGF at the indicated concentrations for 3 weeks. Anchorage-independent colonies ≥100 μm were scored. B9 cells grown in soft agar were treated with vemurafenib or a combination of vemurafenib and erlotinib at the indicated concentrations for 3 weeks. Anchorage-independent colonies ≥100 μm were scored.
# BRAF V600E = biological target: T1, BRAF V600E (Homo sapiens, UniProt P15056, V600E); test: BRAF V600E biochemical kinase activity assay (AlphaScreen, biotin-MEK1 substrate); settings: BRAF V600E biochemical inhibitory activity
# T1 construct: purchased Upstate Biotechnology
# T1 sequence (P15056 whole entry V600E): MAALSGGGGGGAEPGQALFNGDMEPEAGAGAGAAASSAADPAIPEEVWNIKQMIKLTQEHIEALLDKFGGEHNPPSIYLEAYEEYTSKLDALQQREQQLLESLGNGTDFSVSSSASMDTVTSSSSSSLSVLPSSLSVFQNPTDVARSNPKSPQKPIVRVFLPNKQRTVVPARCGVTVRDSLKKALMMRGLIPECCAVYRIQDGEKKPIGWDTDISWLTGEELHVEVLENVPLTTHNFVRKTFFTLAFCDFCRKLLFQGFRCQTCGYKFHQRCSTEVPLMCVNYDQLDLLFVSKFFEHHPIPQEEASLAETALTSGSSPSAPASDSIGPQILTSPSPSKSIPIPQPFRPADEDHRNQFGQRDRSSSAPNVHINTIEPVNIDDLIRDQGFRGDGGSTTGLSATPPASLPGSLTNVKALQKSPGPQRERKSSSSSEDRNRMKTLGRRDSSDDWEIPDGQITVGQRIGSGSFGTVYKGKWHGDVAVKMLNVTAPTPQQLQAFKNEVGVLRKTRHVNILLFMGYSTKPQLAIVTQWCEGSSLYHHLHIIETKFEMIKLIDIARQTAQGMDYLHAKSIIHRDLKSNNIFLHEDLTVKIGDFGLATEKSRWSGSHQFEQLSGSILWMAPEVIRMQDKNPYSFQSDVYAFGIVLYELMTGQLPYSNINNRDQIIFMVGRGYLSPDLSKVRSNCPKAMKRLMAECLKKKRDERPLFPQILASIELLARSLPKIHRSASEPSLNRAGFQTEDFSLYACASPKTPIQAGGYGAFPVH
# B9 (HRAS Q61L) cell line = test: B9 P-ERK cell activation assay (AlphaScreen); type: cell-based, mouse; settings: Mus musculus, P-ERK cell activation, B9, read-out: Cell activity (EC50 μM) B9_pERK
# Outline: (§1)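 Phospho-ERK1/2 (Thr202/Tyr204) in lysates quantified via AlphaScreen bead proximity, after one-hour, 37° C. exposure of cells to eight compound concentrations. Lines: IPC-298 human melanoma with activated NRAS; B9 mouse squamous carcinoma with activated HRAS.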
# [1] = system: IPC-298 (NRAS Q61L) cell line; test: IPC-298 P-ERK cell activation assay (AlphaScreen); type: cell-based, human; settings: Homo sapiens; P-ERK cell activation, IPC-298; numeric bounds; read-out: Cell activity (EC50 μM) IPC-298_P-ERK
# Outline: as §1
# [2] = system: A375 (BRAF V600E) cell line; test: A375 P-ERK inhibition assay (AlphaScreen); type: cell-based, human; settings: Homo sapiens, A-375; A375_P-ERK
# Outline: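 Phospho-ERK1/2 (Thr202/Tyr204) detected in lysates by AlphaScreen proximity signal, pairing a total-ERK antibody with a phospho-specific antibody. Before lysis, A375 cells received compound as an 8-point titration for one hour at 37° C.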
IC50 (BRAF V600E) [µM],EC50 (B9 (HRAS Q61L) cell line; numeric bounds) [µM],EC50 [1] [µM],IC50 [2] [µM],EC50 (B9 (HRAS Q61L) cell line; class symbols) [µM],Structure (SMILES),B9 colony formation / anchorage-independent growth in soft agar (B9 cells; colonies ≥100 μm scored),effect on vemurafenib-induced B9 colony formation (B9 cells),effect on vemurafenib-induced B9 colony formation (B9 cells; listed as erlotinib)
0.0001 to 1,> 10,> 10,0.0001 to 1,,"O=C(c1c(F)ccc(NS(=O)(=O)N2CCOCC2)c1F)c1c[nH]c2ncnc(NCC3CC3)c12 [P-2054, N-[3-[4-(cyclopropylmethylamino)-7H-pyrrolo[2,3-d]pyrimidine-5-carbonyl]-2,4-difluoro-phenyl]morpholine-4-sulfonamide]",,,
1 to 10,> 10,> 10,0.0001 to 1,,"CCN(C)S(=O)(=O)Nc1cccc(-c2nc(C(C)(C)C)sc2-c2ccnc(Cl)n2)c1F [P-2085, 2-tert-butyl-5-(2-chloropyrimidin-4-yl)-4-[3-[[ethyl(methyl)sulfamoyl]amino]-2-fluoro-phenyl]thiazole]",,,
0.0001 to 1,> 10,> 10,0.0001 to 1,,"CC(C)Nc1ncnc2[nH]cc(C(=O)c3c(F)ccc(NS(=O)(=O)N(C)C)c3F)c12 [P-2045, 5-[3-(dimethylsulfamoylamino)-2,6-difluoro-benzoyl]-4-(isopropylamino)-7H-pyrrolo[2,3-d]pyrimidine]",,,
0.0001 to 1,> 10,> 10,0.0001 to 1,,"CCOC(=O)CNc1ncnc2[nH]cc(C(=O)c3cccc(NS(=O)(=O)N4CCCC4)c3F)c12 [P-2103, ethyl 2-[[5-[2-fluoro-3-(pyrrolidin-1-ylsulfonylamino)benzoyl]-7H-pyrrolo[2,3-d]pyrimidin-4-yl]amino]acetate]",,,
0.0001 to 1,> 10,> 10,0.0001 to 1,,"O=C(c1cc(Cl)cc(NS(=O)(=O)N2CC[C@@H](F)C2)c1F)c1c[nH]c2ncc(-c3cnc(C4CC4)nc3)cc12 [P-2174, (3R)—N-[5-chloro-3-[5-(2-cyclopropylpyrimidin-5-yl)-1H-pyrrolo[2,3-b]pyridine-3-carbonyl]-2-fluoro-phenyl]-3-fluoro-pyrrolidine-1-sulfonamide]",,,
0.0001 to 1,> 10,> 10,0.0001 to 1,,"CCN(C)S(=O)(=O)Nc1cccc(C(=O)c2c[nH]c3ncnc(NC[C@@H]4CCCO4)c23)c1F [P-2074, 5-[3-[[ethyl(methyl)sulfamoyl]amino]-2-fluoro-benzoyl]-4-[[(2S)-tetrahydrofuran-2-yl]methylamino]-7H-pyrrolo[2,3-d]pyrimidine]",,,
0.0001 to 1,> 10,> 10,0.0001 to 1,,"CC(C)Nc1ncnc2[nH]cc(C(=O)c3c(F)ccc(NS(=O)(=O)N4CCOCC4)c3F)c12 [P-2044, N-[2,4-difluoro-3-[4-(isopropylamino)-7H-pyrrolo[2,3-d]pyrimidine-5-carbonyl]phenyl]morpholine-4-sulfonamide]",,,

# Continued, compound first:
Structure (SMILES),IC50 (BRAF V600E) [µM],EC50 (B9 (HRAS Q61L) cell line; numeric bounds) [µM],EC50 [1] [µM],IC50 [2] [µM],EC50 (B9 (HRAS Q61L) cell line; class symbols) [µM],B9 colony formation / anchorage-independent growth in soft agar (B9 cells; colonies ≥100 μm scored),effect on vemurafenib-induced B9 colony formation (B9 cells),effect on vemurafenib-induced B9 colony formation (B9 cells; listed as erlotinib)
"CCCS(=O)(=O)Nc1ccc(F)c(C(=O)c2c[nH]c3ncc(Cl)cc23)c1F [P-1000, N-[3-(5-chloro-1H-pyrrolo[2,3-b]pyridine-3-carbonyl)-2,4-difluoro-phenyl]propane-1-sulfonamide]",,,,,,stimulated B9 colony formation; also recorded: increased anchorage independent cell growth,,
"CC(C)Nc1ncnc2[nH]cc(C(=O)c3c(F)ccc(NS(=O)(=O)N4CCCCC4)c3F)c12 [P-2038, N-[2,4-difluoro-3-[4-(isopropylamino)-7H-pyrrolo[2,3-d]pyrimidine-5-carbonyl]phenyl]piperidine-1-sulfonamide]",0.0001 to 1,> 10,> 10,0.0001 to 1,,,,
C#Cc1cccc(Nc2ncnc3cc(OCCOC)c(OCCOC)cc23)c1 [Erlotinib],,,,,,,inhibited,antagonizes vemurafenib-induced B9 colony formation
"O=C(c1cccc(NS(=O)(=O)N2CCCC2)c1F)c1c[nH]c2ncnc(NC3CCOCC3)c12 [P-2083, N-[2-fluoro-3-[4-(tetrahydropyran-4-ylamino)-7H-pyrrolo[2,3-d]pyrimidine-5-carbonyl]phenyl]pyrrolidine-1-sulfonamide]",0.0001 to 1,> 10,> 10,0.0001 to 1,,,,
"CCN(C)S(=O)(=O)Nc1ccc(F)c(C(=O)c2c[nH]c3ncnc(NCCCOC)c23)c1F [P-2116, 5-[3-[[ethyl(methyl)sulfamoyl]amino]-2,6-difluoro-benzoyl]-4-(3-methoxypropylamino)-7H-pyrrolo[2,3-d]pyrimidine]",0.0001 to 1,> 10,> 10,0.0001 to 1,,,,
"Cc1cc2c(-c3sc(C(C)(C)C)nc3-c3cccc(NS(=O)(=O)N4CCCC4)c3F)ccnc2[nH]1 [P-2121, N-[3-[2-tert-butyl-5-(2-methyl-1H-pyrrolo[2,3-b]pyridin-4-yl)thiazol-4-yl]-2-fluoro-phenyl]pyrrolidine-1-sulfonamide]",0.0001 to 1,> 10,> 10,0.0001 to 1,,,,
"CC(C)Nc1ncnc2[nH]cc(C(=O)c3c(F)ccc(NS(=O)(=O)C4CCCC4)c3F)c12 [P-2040, N-[2,4-difluoro-3-[4-(isopropylamino)-7H-pyrrolo[2,3-d]pyrimidine-5-carbonyl]phenyl]cyclopentanesulfonamide]",0.0001 to 1,> 10,> 10,0.0001 to 1,,,,
"CC(C)Nc1ncnc2[nH]cc(C(=O)c3c(F)ccc(NS(=O)(=O)C(C)C)c3F)c12 [P-2037, N-[2,4-difluoro-3-[4-(isopropylamino)-7H-pyrrolo[2,3-d]pyrimidine-5-carbonyl]phenyl]propane-2-sulfonamide]",0.0001 to 1,> 10,> 10,0.0001 to 1,,,,
"O=C(c1cccc(NS(=O)(=O)N2CCCC2)c1F)c1c[nH]c2ncnc(NCCN3CCOCC3)c12 [P-2110, N-[2-fluoro-3-[4-(2-morpholinoethylamino)-7H-pyrrolo[2,3-d]pyrimidine-5-carbonyl]phenyl]pyrrolidine-1-sulfonamide]",0.0001 to 1,> 10,> 10,0.0001 to 1,,,,
"[2H]C1([2H])CCC([2H])([2H])N1S(=O)(=O)Nc1cc(Cl)cc(C(=O)c2c[nH]c3ncc(-c4cnc(C5CC5)nc4)cc23)c1F [P-2176, N-[5-chloro-3-[5-(2-cyclopropylpyrimidin-5-yl)-1H-pyrrolo[2,3-b]pyridine-3-carbonyl]-2-fluoro-phenyl]-2,2,5,5-tetradeuterio-pyrrolidine-1-sulfonamide]",0.0001 to 1,> 10,> 10,0.0001 to 1,,,,
"O=C(c1cccc(NS(=O)(=O)N2CCCC2)c1F)c1c[nH]c2ncncc12 [P-2032, N-[2-fluoro-3-(7H-pyrrolo[2,3-d]pyrimidine-5-carbonyl)phenyl]pyrrolidine-1-sulfonamide]",0.0001 to 1,> 10,> 10,0.0001 to 1,,,,
"N#Cc1ccnc2[nH]cc(C(=O)c3c(F)ccc(NS(=O)(=O)N4CCCC4)c3F)c12 [P-2019, N-[3-(4-cyano-1H-pyrrolo[2,3-b]pyridine-3-carbonyl)-2,4-difluoro-phenyl]pyrrolidine-1-sulfonamide]",0.0001 to 1,> 10,> 10,0.0001 to 1,,,,
"COC(=O)N[C@@H](C)CNc1nccc(-c2nn(C(C)C)cc2-c2cc(Cl)cc(NS(=O)(=O)N(C)C)c2F)n1 [P-2166, methyl N-[(1S)-2-[[4-[4-[5-chloro-3-(dimethylsulfamoylamino)-2-fluoro-phenyl]-1-isopropyl-pyrazol-3-yl]pyrimidin-2-yl]amino]-1-methyl-ethyl]carbamate]",0.0001 to 1,,> 10,0.0001 to 1,0.0001 to 1,,,
"CCCNc1ncnc2[nH]cc(C(=O)c3c(F)ccc(NS(=O)(=O)N(C)CC)c3F)c12 [P-2099, 5-[3-[[ethyl(methyl)sulfamoyl]amino]-2,6-difluoro-benzoyl]-4-(propylamino)-7H-pyrrolo[2,3-d]pyrimidine]",0.0001 to 1,> 10,> 10,0.0001 to 1,,,,
"CC(C)(O)CCNc1ncnc2[nH]cc(C(=O)c3cccc(NS(=O)(=O)N4CCCC4)c3F)c12 [P-2108, N-[2-fluoro-3-[4-[(3-hydroxy-3-methyl-butyl)amino]-7H-pyrrolo[2,3-d]pyrimidine-5-carbonyl]phenyl]pyrrolidine-1-sulfonamide]",0.0001 to 1,> 10,> 10,0.0001 to 1,,,,

# From patent US10421761B2, “Compounds for kinase modulation, and indications therefor” (Plexxikon Inc., priority 2013, dated 2019)
